Here are results for 23 compounds from ChEMBL document CHEMBL5352410, “Discovery of novel selenium-containing azole derivatives as antifungal agents by exploiting the hydrophobic cleft of CYP51” (Eur J Med Chem, 2022).

The structures appear in SMILES notation. ≈ marks a conversion by molar mass, not a printed value.

What all share (format): functional
Test [1] deals with Candida albicans. Nature of the test: Antifungal activity against FCZ-resistant Candida albicans CaR by CLSI based broth microdilution method.
The subject of test [2] is Candida albicans. Nature of the test: Antifungal activity against FCZ-resistant Candida albicans 17# by CLSI based broth microdilution method.
Test [3] concerns Candida albicans. Nature of the test: Antifungal activity against FCZ-resistant Candida albicans 632 by CLSI based broth microdilution method.
Test [4] has as its system Candida albicans. Nature of the test: Antifungal activity against FCZ-resistant Candida albicans 901 by CLSI based broth microdilution method.
The subject of test [5] is Candida albicans. Nature of the test: Antifungal activity against FCZ-resistant Candida albicans 904 by CLSI based broth microdilution method.
Test [6] relates to Candida albicans. Nature of the test: Antifungal activity against Candida albicans sc5314 by CLSI based broth microdilution method.
Test [7] has as its system Candida albicans. Nature of the test: Antifungal activity against Candida albicans by CLSI based broth microdilution method.
The test system of test [8] is Nakaseomyces glabratus. Nature of the test: Antifungal activity against Candida glabrata by CLSI based broth microdilution method.
In test [9] the test system is Candida parapsilosis. Nature of the test: Antifungal activity against Candida parapsilosis by CLSI based broth microdilution method. The following applies: Lodderomyces parapsilosis.
The subject of test [10] is Pichia kudriavzevii. Nature of the test: Antifungal activity against Pichia kudriavzevii by CLSI based broth microdilution method.
Test [11] relates to [Candida] zeylanoides. Nature of the test: Antifungal activity against Candida zeylanoides by CLSI based broth microdilution method. The settings on record: Dujonia zeylanoides.
Test [12] has as its system Cryptococcus neoformans. Nature of the test: Antifungal activity against Cryptococcus neoformans by CLSI based broth microdilution method.
For test [13], the system named is Aspergillus fumigatus. Nature of the test: Antifungal activity against Aspergillus fumigatus by CLSI based broth microdilution method.

Regarding `Fc1ccc(C(Cn2cncn2)[Se][Se]C(Cn2cncn2)c2ccc(F)cc2)cc1` (stereo not given), the MIC in test [1] stood at 4 µg/mL (≈ 7.43 µM); in test [2] it was 16 µg/mL (≈ 29.7 µM); in [3] it was 64 µg/mL (≈ 119 µM); in [4], 16 µg/mL (≈ 29.7 µM); in [5] it was 16 µg/mL (≈ 29.7 µM).
`Fc1ccc(C(Cn2cnnn2)[Se][Se]C(Cn2cnnn2)c2ccc(F)cc2)cc1` (stereo not given): the MIC in test [1] was 16 µg/mL (≈ 29.6 µM); in [2], 32 µg/mL (≈ 59.2 µM); in test [3] it was greater than 64 µg/mL; in test [4] it was greater than 64 µg/mL; in test [5], greater than 64 µg/mL.
`Fc1ccc(C(Cn2ccnn2)[Se][Se]C(Cn2ccnn2)c2ccc(F)cc2)cc1` (stereo not given): the minimal inhibitory concentration (MIC) is 32 µg/mL (≈ 59.4 µM) in [1]; greater than 64 µg/mL in test [2]; greater than 64 µg/mL in [3]; greater than 64 µg/mL in test [4]; greater than 64 µg/mL in test [5].
As for `Clc1ccc(C(Cn2ccnn2)[Se]C(Cn2ccnn2)c2ccc(Cl)cc2)cc1` (stereo not given), the MIC is greater than 64 µg/mL in test [6]; greater than 64 µg/mL in [7]; 8 µg/mL (≈ 16.3 µM) in [8]; greater than 64 µg/mL in [9]; 32 µg/mL (≈ 65 µM) in [10]; 64 µg/mL (≈ 130 µM) in test [11]. Further, the MIC in test [12], in [13], in [1], in test [2], in test [3] and in test [4] was greater than 64 µg/mL each time. In [5], this compound gave an MIC greater than 64 µg/mL.
Regarding `Clc1ccc(C(Cn2ccnn2)[Se][Se]C(Cn2ccnn2)c2ccc(Cl)cc2)cc1` (stereo not given), the MIC in [1], in test [2], in test [3], in test [4] and in test [5] was greater than 64 µg/mL in each case.
For `Clc1ccc(C(Cn2cncn2)[Se]C(Cn2cncn2)c2ccc(Cl)cc2Cl)c(Cl)c1` (stereo not given), the MIC in test [6] was 32 µg/mL (≈ 57 µM); in test [7] it was 64 µg/mL (≈ 114 µM); in test [8], 32 µg/mL (≈ 57 µM); in [9], 64 µg/mL (≈ 114 µM); in test [10], 64 µg/mL (≈ 114 µM); in test [11], 0.5 µg/mL (≈ 0.891 µM). The MIC in test [12] was 4 µg/mL (≈ 7.13 µM); in [13] it was greater than 64 µg/mL; in test [1], 32 µg/mL (≈ 57 µM); in test [2] it was 8 µg/mL (≈ 14.3 µM); in test [3] it was 64 µg/mL (≈ 114 µM); in test [4], greater than 64 µg/mL. In addition, the MIC in test [5] is greater than 64 µg/mL.
Consider `Fc1ccc(C(Cn2cncn2)[Se]C(Cn2cncn2)c2ccc(F)cc2)cc1` (stereo not given), for which the MIC in [6] was 32 µg/mL (≈ 69.7 µM); in [7], greater than 64 µg/mL; in test [8] it was 64 µg/mL (≈ 139 µM); in test [9] it was greater than 64 µg/mL; in [10], greater than 64 µg/mL; in [11] it was 1 µg/mL (≈ 2.18 µM). The MIC in test [12] is greater than 64 µg/mL; in test [13] it was greater than 64 µg/mL; in test [1] it was 64 µg/mL (≈ 139 µM); in test [2] it was 8 µg/mL (≈ 17.4 µM); in [3] it was greater than 64 µg/mL; in test [4], greater than 64 µg/mL. The compound also registered an MIC in [5] of 64 µg/mL (≈ 139 µM).
For the compound `Fc1ccc(C(Cn2cnnn2)[Se]C(Cn2cnnn2)c2ccc(F)cc2F)c(F)c1` (stereo not given), the MIC in test [6], in [7], in [8], in test [9], in [10] and in test [11] was greater than 64 µg/mL each time. Further, the MIC in [12], in [13], in test [1], in test [2], in test [3] and in test [4] was greater than 64 µg/mL in each case. Also, the MIC in test [5] is greater than 64 µg/mL.
`Clc1ccc(C(Cn2cncn2)[Se][Se]C(Cn2cncn2)c2ccc(Cl)cc2Cl)c(Cl)c1` (stereo not given): the MIC is 8 µg/mL (≈ 12.5 µM) in test [1]; 16 µg/mL (≈ 25 µM) in [2]; greater than 64 µg/mL in test [3]; greater than 64 µg/mL in test [4]; greater than 64 µg/mL in test [5].
Turning to `CCC(C)n1ncn(-c2ccc(N3CCN(c4ccc(OCC5COC(Cn6cncn6)(c6ccc(Cl)cc6Cl)O5)cc4)CC3)cc2)c1=O` (stereo not given) [ITRACONAZOLE], the MIC in [1] is 8 µg/mL (≈ 11.3 µM); in test [2] it was greater than 64 µg/mL; in test [3], greater than 64 µg/mL; in test [4] it was greater than 64 µg/mL; in [5], greater than 64 µg/mL.
As for `Clc1ccc(C(Cn2ccnn2)[Se][Se]C(Cn2ccnn2)c2ccc(Cl)cc2Cl)c(Cl)c1` (stereo not given), the MIC was 4 µg/mL (≈ 6.25 µM) in test [1]; 64 µg/mL (≈ 100 µM) in test [2]; greater than 64 µg/mL in [3]; greater than 64 µg/mL in [4]; greater than 64 µg/mL in test [5].
With `Clc1ccc(C(Cn2cnnn2)[Se]C(Cn2cnnn2)c2ccc(Cl)cc2)cc1` (stereo not given), the MIC in [6], in test [7], in test [8], in test [9], in [10] and in [11] was greater than 64 µg/mL in each case. Further, the MIC in [12], in [13], in [1], in [2], in test [3] and in test [4] was greater than 64 µg/mL each time. In [5], this compound gave an MIC greater than 64 µg/mL.
As to `Clc1ccc(C(Cn2ccnn2)[Se]C(Cn2ccnn2)c2ccc(Cl)cc2Cl)c(Cl)c1` (stereo not given), the MIC in [6] is greater than 64 µg/mL; in test [7], greater than 64 µg/mL; in test [8], 64 µg/mL (≈ 114 µM); in test [9], greater than 64 µg/mL; in [10], greater than 64 µg/mL; in [11], 32 µg/mL (≈ 57 µM). The MIC in test [12] is 64 µg/mL (≈ 114 µM); in test [13] it was greater than 64 µg/mL; in test [1], 128 µg/mL (≈ 228 µM); in [2], 4 µg/mL (≈ 7.13 µM); in test [3] it was greater than 64 µg/mL; in test [4], greater than 64 µg/mL. The compound also returned an MIC in test [5] greater than 64 µg/mL.
On to `Fc1ccc(C(Cn2ccnn2)[Se]C(Cn2ccnn2)c2ccc(F)cc2)cc1` (stereo not given), for which the MIC in test [6] is greater than 64 µg/mL; in [7], greater than 64 µg/mL; in test [8], 8 µg/mL (≈ 17.4 µM); in test [9], greater than 64 µg/mL; in test [10], 64 µg/mL (≈ 139 µM); in test [11], 64 µg/mL (≈ 139 µM). The MIC in [12], in test [13], in test [1], in test [2], in [3] and in test [4] was greater than 64 µg/mL each time. Besides, the MIC in test [5] is greater than 64 µg/mL.
As to `Clc1ccc(C(Cn2cnnn2)[Se][Se]C(Cn2cnnn2)c2ccc(Cl)cc2Cl)c(Cl)c1` (stereo not given), the MIC in test [1] is 64 µg/mL (≈ 99.7 µM); in test [2], 64 µg/mL (≈ 99.7 µM); in [3], greater than 64 µg/mL; in test [4], greater than 64 µg/mL; in test [5] it was greater than 64 µg/mL.
Turning to `Clc1ccc(C(Cn2cnnn2)[Se][Se]C(Cn2cnnn2)c2ccc(Cl)cc2)cc1` (stereo not given), the MIC in test [1], in test [2], in test [3], in test [4] and in test [5] was greater than 64 µg/mL throughout.
Consider `Fc1ccc(C(Cn2cnnn2)[Se]C(Cn2cnnn2)c2ccc(F)cc2)cc1` (stereo not given), for which the minimal inhibitory concentration (MIC) in [6] was greater than 64 µg/mL; in test [7] it was greater than 64 µg/mL; in [8], greater than 64 µg/mL; in test [9], greater than 64 µg/mL; in test [10], greater than 64 µg/mL; in [11] it was 32 µg/mL (≈ 69.4 µM). For the same compound, the MIC in test [12], in [13], in [1], in test [2], in test [3] and in [4] was greater than 64 µg/mL in each case. The compound further showed an MIC in test [5] greater than 64 µg/mL.
As to `Clc1ccc(C(Cn2cnnn2)[Se]C(Cn2cnnn2)c2ccc(Cl)cc2Cl)c(Cl)c1` (stereo not given), the minimal inhibitory concentration (MIC) in test [6], in test [7], in [8], in [9], in test [10] and in [11] was greater than 64 µg/mL each time. For the same compound, the MIC in test [12], in test [13], in test [1], in [2], in test [3] and in [4] was greater than 64 µg/mL throughout. Also, the MIC in test [5] is greater than 64 µg/mL.
As to `Fc1ccc(C(Cn2cnnn2)[Se][Se]C(Cn2cnnn2)c2ccc(F)cc2F)c(F)c1` (stereo not given), the MIC was greater than 64 µg/mL in test [1]; 64 µg/mL (≈ 111 µM) in test [2]; greater than 64 µg/mL in test [3]; greater than 64 µg/mL in [4]; greater than 64 µg/mL in [5].
Consider `Fc1ccc(C(Cn2cncn2)[Se][Se]C(Cn2cncn2)c2ccc(F)cc2F)c(F)c1` (stereo not given), for which the MIC was 16 µg/mL (≈ 27.9 µM) in [1]; 8 µg/mL (≈ 13.9 µM) in test [2]; greater than 64 µg/mL in [3]; 16 µg/mL (≈ 27.9 µM) in [4]; 64 µg/mL (≈ 111 µM) in test [5].
With `Clc1ccc(C(Cn2cncn2)[Se][Se]C(Cn2cncn2)c2ccc(Cl)cc2)cc1` (stereo not given), the MIC in test [1] is 4 µg/mL (≈ 7 µM); in test [2], 64 µg/mL (≈ 112 µM); in test [3], greater than 64 µg/mL; in [4], 16 µg/mL (≈ 28 µM); in test [5], 16 µg/mL (≈ 28 µM).
As to `Fc1ccc(C(Cn2ccnn2)[Se]C(Cn2ccnn2)c2ccc(F)cc2F)c(F)c1` (stereo not given), the MIC in test [6] was greater than 64 µg/mL; in test [7], greater than 64 µg/mL; in test [8], 64 µg/mL (≈ 129 µM); in test [9], greater than 64 µg/mL; in [10], greater than 64 µg/mL; in test [11], 1 µg/mL (≈ 2.02 µM). Besides, the MIC in [12] was 32 µg/mL (≈ 64.6 µM); in test [13], greater than 64 µg/mL; in test [1], 64 µg/mL (≈ 129 µM); in test [2], 4 µg/mL (≈ 8.08 µM); in [3], greater than 64 µg/mL; in test [4] it was greater than 64 µg/mL. In addition, the MIC in test [5] is greater than 64 µg/mL.
As to `Fc1ccc(C(Cn2ccnn2)[Se][Se]C(Cn2ccnn2)c2ccc(F)cc2F)c(F)c1` (stereo not given), the MIC in test [1] was 4 µg/mL (≈ 6.96 µM); in test [2], 16 µg/mL (≈ 27.9 µM); in [3], greater than 64 µg/mL; in test [4], greater than 64 µg/mL; in test [5], greater than 64 µg/mL.
